From ChEMBL document CHEMBL1201862, “PubChem BioAssay data set” (2004)
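These data come from cells grown in 96-well plates and exposed to compound for 48 hours at five concentrations. At the GI50, growth is halved.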 Active and inactive are the calls of the source. Cut-off read from the data, not from the text of the source: active = GI50 up to about 1.1 µM and inactive = higher. Starred links: 1 amine or outer side, 2 acyl side, 3 side chain; linkers in the order of their positions; H or OH if unused. Positions of bridges follow the written chain, without caps; N, C: chain ends. Non-standard residues stand in square brackets, D forms with d. Residues, ends and D or L forms follow the SMILES beside them. ξ: configuration not given here. X11 = CCC(C)C(N[*:1])C(O)CC(=O)O[C@H](C(=O)C(C)C(=O)[*:2])C(C)C; X10 = O=C([C@@H]1CC(O)CN1[*:1])[*:2]; NMeY = CN[C@@H](Cc1ccc(O)cc1)C(=O)O; ξNMeL = CNC(CC(C)C)C(=O)O; ξT = CC(O)C(N)C(=O)O

Tests used:
Assay in all cases: inhibition of tumour cell growth, NCI panel, 48 h
A498 = system: A498
BT-549 = system: BT-549
DU-145 = system: DU-145
HOP-92 = system: HOP-92
Hs-578T = system: Hs-578T
KM12 = system: KM12
M14 = system: M14
MCF7 = system: MCF7
MDA-MB-231 = system: MDA-MB-231
MDA-MB-435 = system: MDA-MB-435
MDA-N = system: MDA-N
MOLT-4 = system: MOLT-4
NCI-H460 = system: NCI-H460
NCI/ADR-RES = system: NCI/ADR-RES
PC-3 = system: PC-3
SK-MEL-28 = system: SK-MEL-28
SR = system: SR
T47D = system: T47D
UACC-62 = system: UACC-62
XF498 = system: XF498

Measured: GI50

CC12CCC(O)CC1CCC1C2CCC2(C)C(C(=O)CC(O)C(F)(F)F)CCC12 (configuration not stated)
active: SR 0.289 µM
inactive: A498 20.2 µM | BT-549 > 78.3 µM | DU-145 > 87.5 µM | HOP-92 31.8 µM | Hs-578T 23.9 µM | KM12 17.1 µM | M14 20.8 µM | MCF7 31.2 µM | MDA-MB-231 26.7 µM | MDA-MB-435 > 75 µM | MDA-N 61.1 µM | MOLT-4 9.35 µM | NCI-H460 11.7 µM | NCI/ADR-RES 24.9 µM | PC-3 30.6 µM | SK-MEL-28 73.5 µM | T47D 20.2 µM | UACC-62 52.2 µM

CC1(C)C2CCC3(OCCO3)C1C1OC12 (configuration not stated)
inactive: A498 > 100 µM | HOP-92 > 100 µM | KM12 > 100 µM | M14 > 100 µM | MOLT-4 > 100 µM | NCI-H460 > 100 µM | SK-MEL-28 > 100 µM | XF498 > 100 µM

CCCCCCNC(=O)C1=C(C)NC(C)=C(C(=O)NCCCCCC)C1
inactive: A498 > 100 µM | BT-549 > 100 µM | DU-145 > 100 µM | HOP-92 73.3 µM | Hs-578T > 100 µM | KM12 > 100 µM | M14 > 100 µM | MCF7 > 100 µM | MDA-MB-231 > 100 µM | MDA-MB-435 64.7 µM | MDA-N 75.5 µM | MOLT-4 > 100 µM | NCI-H460 > 100 µM | NCI/ADR-RES > 100 µM | PC-3 > 100 µM | SK-MEL-28 > 100 µM | SR 83 µM | T47D > 100 µM | UACC-62 > 100 µM

COc1ccc(CCC2NCCc3cc(OC)c(OC)cc32)cc1 (configuration not stated)
inactive: A498 > 100 µM | KM12 > 100 µM | M14 > 100 µM | MOLT-4 > 100 µM | NCI-H460 > 100 µM | SK-MEL-28 > 100 µM | XF498 > 100 µM

CN(CCN(C)CCN(C)C(=O)Cc1ccc(Cl)c(Cl)c1)CCN1CCCC1
inactive: A498 16.4 µM | BT-549 25.7 µM | DU-145 57.3 µM | HOP-92 5.71 µM | Hs-578T 28.5 µM | KM12 35 µM | M14 25.9 µM | MCF7 24.2 µM | MDA-MB-231 17.7 µM | MDA-MB-435 5.68 µM | MDA-N 6.85 µM | MOLT-4 10.6 µM | NCI-H460 26.9 µM | NCI/ADR-RES > 100 µM | PC-3 34.7 µM | SK-MEL-28 1.94 µM | SR 16.5 µM | T47D 24.6 µM | UACC-62 4.52 µM

COC1=C(C(c2cc(OC)c(OC)c(OC)c2)c2cc3c(cc2OC)OCO3)C(=O)OC1 (configuration not stated)
inactive: A498 14.9 µM | BT-549 47.2 µM | DU-145 29.2 µM | HOP-92 58.9 µM | Hs-578T 9.18 µM | KM12 11.6 µM | M14 17.9 µM | MCF7 29 µM | MDA-MB-231 28.6 µM | MDA-MB-435 4.66 µM | MDA-N 3.94 µM | MOLT-4 44.2 µM | NCI-H460 29.2 µM | NCI/ADR-RES 5.69 µM | PC-3 15.7 µM | SK-MEL-28 12.7 µM | SR 11.1 µM | T47D > 100 µM | UACC-62 10.6 µM

O=C(CC(=O)Nc1ccc(C(=O)O)cc1)Nc1ccc(C(=O)O)cc1
inactive: A498 > 100 µM | BT-549 > 100 µM | DU-145 > 100 µM | HOP-92 > 100 µM | Hs-578T > 100 µM | KM12 > 100 µM | M14 > 100 µM | MCF7 > 100 µM | MDA-MB-231 > 100 µM | MDA-MB-435 > 100 µM | MDA-N > 100 µM | MOLT-4 > 100 µM | NCI-H460 > 100 µM | NCI/ADR-RES > 100 µM | PC-3 > 100 µM | SK-MEL-28 > 100 µM | SR > 100 µM | T47D 49.5 µM | UACC-62 37.6 µM

N#CN=C(N(Cc1ccccc1)Cc1ccccc1)N(Cc1ccccc1)Cc1ccccc1
inactive: A498 14.7 µM | KM12 11.9 µM | M14 15.3 µM | MOLT-4 2.74 µM | NCI-H460 3.88 µM | UACC-62 6.32 µM | XF498 12.5 µM

Cc1ccc(-c2nnc3s/c(=C\c4ccc(N(C)C)cc4)c(=O)n23)cc1
inactive: A498 89.9 µM | HOP-92 > 100 µM | KM12 > 100 µM | M14 > 100 µM | MOLT-4 > 100 µM | NCI-H460 > 100 µM | SK-MEL-28 > 100 µM | UACC-62 > 100 µM | XF498 > 100 µM

O=S(=O)(N/N=C/c1c(Cl)cccc1Cl)c1ccccc1
inactive: A498 > 100 µM | HOP-92 > 100 µM | KM12 > 100 µM | M14 > 100 µM | MOLT-4 91.4 µM | NCI-H460 > 100 µM | SK-MEL-28 > 100 µM | SR > 100 µM | UACC-62 97.7 µM | XF498 68.4 µM

CC#C[C@@]1(O)CCCC[C@@H]1O
inactive: A498 > 100 µM | HOP-92 > 100 µM | KM12 > 100 µM | M14 > 100 µM | MOLT-4 > 100 µM | NCI-H460 > 100 µM | SK-MEL-28 > 100 µM | UACC-62 > 100 µM | XF498 > 100 µM

CC1(C)OCC[C@@H]1[Si](C)(C)C
inactive: A498 30.1 µM | HOP-92 55.8 µM | KM12 > 100 µM | M14 > 100 µM | MOLT-4 33 µM | NCI-H460 > 100 µM | SK-MEL-28 84.7 µM | UACC-62 24.5 µM | XF498 32.8 µM

CC(=O)c1cccc(NC(=O)C(=O)C(C(=O)c2ccccc2F)C2OC(=O)c3ccccc32)c1 (configuration not stated)
inactive: A498 91.6 µM | HOP-92 > 100 µM | KM12 39.7 µM | M14 92.7 µM | MOLT-4 22.8 µM | NCI-H460 30.9 µM | SK-MEL-28 50.9 µM | SR 9.2 µM | UACC-62 34.6 µM | XF498 35.6 µM

C/C(=C/c1c(C)[nH]c(=O)[nH]c1=O)C(=O)O
inactive: A498 > 1370 µM | KM12 > 1370 µM | MCF7 > 1370 µM | MOLT-4 > 1370 µM | NCI-H460 > 1370 µM | NCI/ADR-RES > 1370 µM | SK-MEL-28 > 1370 µM | UACC-62 > 1370 µM | XF498 > 1370 µM

Fc1cccc(CSc2ncnc3c2ncn3C2CCCS2)c1 (configuration not stated)
inactive: A498 17.3 µM | BT-549 21.7 µM | DU-145 17.4 µM | HOP-92 24.2 µM | Hs-578T 26.9 µM | KM12 15.4 µM | M14 18.1 µM | MCF7 22 µM | MDA-MB-231 23 µM | MDA-MB-435 18.5 µM | MDA-N 20.8 µM | MOLT-4 3.77 µM | NCI-H460 4.79 µM | NCI/ADR-RES 25 µM | PC-3 14.5 µM | SK-MEL-28 18.9 µM | SR 3.94 µM | T47D 29.3 µM | UACC-62 13.1 µM

COc1cc2c(cc1O)CC[C@@H]1C2CC[C@@]2(C)C1CC[C@@H]2O (some centres not stated)
active: BT-549 0.472 µM | M14 0.91 µM | MDA-MB-435 0.105 µM | MDA-N 0.103 µM | MOLT-4 0.532 µM | NCI/ADR-RES 0.458 µM | SR 0.073 µM
inactive: A498 16.7 µM | DU-145 2.46 µM | HOP-92 10.7 µM | Hs-578T 1.14 µM | KM12 4.43 µM | MCF7 1.6 µM | MDA-MB-231 3.4 µM | NCI-H460 1.96 µM | PC-3 6.24 µM | SK-MEL-28 3.7 µM | T47D 4.66 µM | UACC-62 1.21 µM

C[C@@H]1O[C@]2(O)[C@@H]3CCCN3S(=O)(=O)CCN2C1=O
inactive: A498 > 100 µM | HOP-92 > 100 µM | KM12 > 100 µM | M14 > 100 µM | MOLT-4 > 100 µM | NCI-H460 > 100 µM | SK-MEL-28 > 100 µM | SR > 100 µM | UACC-62 > 100 µM | XF498 8.41 µM

CN(C)C(=S)SCC(N)=O
inactive: A498 > 100 µM | BT-549 > 100 µM | DU-145 > 100 µM | HOP-92 > 100 µM | Hs-578T > 100 µM | KM12 > 100 µM | M14 > 100 µM | MCF7 > 100 µM | MDA-MB-231 > 100 µM | MDA-MB-435 > 100 µM | MDA-N > 100 µM | MOLT-4 > 100 µM | NCI-H460 > 100 µM | NCI/ADR-RES > 100 µM | PC-3 > 100 µM | SK-MEL-28 > 100 µM | SR > 100 µM | T47D > 100 µM | UACC-62 > 100 µM

CCOC(=O)c1c(-c2ccccc2)c(C(OC(c2ccccc2)c2c(-c3ccccc3)c(C(=O)OCC)n3ccccc23)c2ccccc2)c2ccccn12 (configuration not stated)
inactive: KM12 > 100 µM | M14 > 100 µM | MOLT-4 > 100 µM | NCI-H460 > 100 µM | SK-MEL-28 > 100 µM | SR > 100 µM | UACC-62 > 100 µM | XF498 > 100 µM

CCC(C)C1NC(=O)C(NC(=O)C(CC(C)C)N(C)C(=O)[C@@H]2CC(O)CN2)C(C)OC(=O)[C@H](Cc2ccc(OC)cc2)N(C)C(=O)[C@@H]2CCCN2C(=O)[C@H](CC(C)C)NC(=O)C(C)C(=O)[C@H](C(C)C)OC(=O)CC1O (some centres not stated) (H-[X10][ξNMeL][ξT][X11]LP[NMeY](Me); ester 3-C)
active: A498 0.0548 µM | BT-549 0.00609 µM | DU-145 0.0363 µM | HOP-92 0.0189 µM | Hs-578T < 0.001 µM | KM12 < 0.001 µM | M14 0.00419 µM | MCF7 < 0.001 µM | MDA-MB-231 0.0224 µM | MDA-MB-435 0.0102 µM | MDA-N 0.00561 µM | MOLT-4 0.00161 µM | NCI-H460 0.00491 µM | PC-3 0.0135 µM | SK-MEL-28 < 0.001 µM | SR 0.0148 µM | T47D 0.0035 µM | UACC-62 < 0.001 µM
inactive: NCI/ADR-RES 1.45 µM
